Laboratory results: patent US10189794B2, “Heteroaryl compounds and uses thereof” (Celgene CAR LLC, priority 2013, dated 2019)
Like-named read-outs stand apart in the source and are kept apart here.

Experiments:
[1] = molecular target: FGFR4 in MDA-MB-453 cells (Homo sapiens (Human), UniProt P22455, Y367C); assay: Target occupancy assay with biotinylated covalent probe I-127; type: cell-based; details: MDA-MB-453 lysate; 2 μM biotinylated probe I-127
Description: In order to assess free FGFR4 protein a biotinylated covalent probe was utilized. […] The reaction was incubated for 2 hr at room temperature. The samples and probe mixture were transferred to a FGFR4-coated MSD plate for 2 hr at room temperature. MSD signals were obtained with an anti-streptavidin Sulfo-tag (Meso Scale) antibody for 1 hr at room temperature.
If a compound completely (100%) covalently modies FGFR4 no free FGFR4 should be available for covalent modification by the biotinylated probe and subsequent binding to streptavidin and detection.

Huh7 cells = assay: Cell proliferation, Huh7 (CellTiter Glo); type: cell-based; details: Homo sapiens, Huh-7; Huh7; 120 hr; read-out: Cell Proliferation GI50 (nM) HUH
Description: The growth inhibition (GI50) values were determined by Graph Pad Prism.

MDA-MB-453 cells = assay: Cell proliferation, MDA-MB-453 (CellTiter Glo); type: cell-based; details: Homo sapiens; MDA-MB-453; 96 hr; read-out: Cell Proliferation GI50 (nM) MDA
Description: For both MDA-MB-453 and Huh7 cells the starting density was 5000 cells per well. The cells were allowed to settle down for 4 hr and were then treated with 5, 1.25, 0.31, 0.078, 0.020 or 0.005 μM of test compound for: 96 hr for MDA-MB-453 and 120 hr for Huh7 cells. Cell viability was determined by CellTiter Glo (Promega, Madison, Wis.) and the results were converted to cell numbers using a standard curve. The growth inhibition (GI50) values were determined by Graph Pad Prism.
The results of these experiments show the ability of compounds to inhibit cell growth in FGFR dependant cell lines and are depicted in Table 8, in the columns titled “Cell Proliferation GI50 (nM)”. MDA-MB-453 cell results fall under the heading “MDA” and Huh7 cell results fall under the heading “Huh.”

FGFR4-WT = FGFR4-WT (Homo sapiens (Human), UniProt P22455); assay: Omnia assay for potency assessment against FGFR4 enzyme; type: biochemical
Description: A 10× stock solution of FGFR4-WT (PR4380C), (from Invitrogen, Carlsbad, Calif.) corresponding to method a in Table 7, was prepared as described below. Alternatively, a 10× stock solution of FGFR4-WT (F01-11G), (SignalChem, Richmond, BC) corresponding to method b in Table 7, was prepared as described below. A solution of 1.4×ATP (AS001A) and 5×Tyr-Sox conjugated peptide substrate (KNZ3101) were prepared in IX kinase reaction buffer consisting of 20 mM Tris, pH 7.5, 5 mM MgCl2, 1 mM EGTA, 5 mM β-glycerophosphate, 5% glycerol (10× stock, KB002A) and 0.2 mM DTT (DS001A). […] The serially diluted compounds were prepared on a Tecan EVO100. A second addition of 10 μl of Tyr-Sox FGFR4 substrate was added to each well and the kinase reactions were started with the addition of 35 μL of 1.4×ATP. The reactions were monitored every 71 seconds for 240 minutes at λex360/λem485 in a Synergy plate reader from BioTek (Winooski, Vt.).

pFGFR4 in Huh7 cells = pFGFR4 in Huh7 cells (Homo sapiens (Human), UniProt P22455); assay: FGFR4 signaling (phospho-FGFR4) in Huh7 cells, MSD; type: cell-based; details: Meso Scale assay (MSD), 1 hr treatment, read-out: Signaling EC50 (nM) pFGFR4 (Huh)
[2] = method a: Invitrogen FGFR4-WT 10 nM, ATP 300 uM, Y10-Sox 10 uM, read-out: FGFR4 IC50

Chain of pFGFR4 in Huh7 cells (P22455 22-802): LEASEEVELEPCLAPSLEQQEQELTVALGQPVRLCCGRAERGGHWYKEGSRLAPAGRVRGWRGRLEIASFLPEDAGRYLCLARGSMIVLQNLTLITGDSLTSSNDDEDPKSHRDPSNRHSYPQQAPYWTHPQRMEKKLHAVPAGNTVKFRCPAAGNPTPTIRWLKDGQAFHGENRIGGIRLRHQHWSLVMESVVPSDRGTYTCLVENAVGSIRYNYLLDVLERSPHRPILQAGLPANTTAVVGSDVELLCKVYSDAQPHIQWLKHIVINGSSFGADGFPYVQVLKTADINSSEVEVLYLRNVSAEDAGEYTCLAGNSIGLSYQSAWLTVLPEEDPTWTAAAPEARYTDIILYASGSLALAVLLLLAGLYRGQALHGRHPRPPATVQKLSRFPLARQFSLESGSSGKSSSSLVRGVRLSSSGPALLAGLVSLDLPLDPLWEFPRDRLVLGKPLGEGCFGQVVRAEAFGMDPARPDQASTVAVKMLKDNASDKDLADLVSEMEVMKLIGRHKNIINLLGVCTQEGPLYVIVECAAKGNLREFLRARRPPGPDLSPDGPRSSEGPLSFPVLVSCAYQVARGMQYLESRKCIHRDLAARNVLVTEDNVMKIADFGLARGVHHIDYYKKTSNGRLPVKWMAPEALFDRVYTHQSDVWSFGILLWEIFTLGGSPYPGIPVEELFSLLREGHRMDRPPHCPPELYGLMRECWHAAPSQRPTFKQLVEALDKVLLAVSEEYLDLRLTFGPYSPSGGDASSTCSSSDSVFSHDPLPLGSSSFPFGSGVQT
Chain of FGFR4-WT (P22455 22-802): as above
Chain of FGFR4 in MDA-MB-453 cells (P22455 22-802 Y367C): as the sequence (P22455 22-802) above, with Y346C counted along it

SMILES: C=CC(=O)NC1CCCCC1Nc1ncc2c(n1)N(Cc1cccnc1)C(=O)N(c1c(Cl)c(OC)cc(OC)c1Cl)C2 (racemic) [I-35]
- EC50 [1]: 0.101 to 0.5 µM
- GI50 (Huh7 cells): 501 to 999 nM
- GI50 (MDA-MB-453 cells): 101 to 500 nM
- IC50 (FGFR4-WT; [2]): < 0.1 µM

SMILES: C=CC(=O)NC1CCCCC1Nc1ncc2c(n1)N(CC#N)C(=O)N(c1c(Cl)c(OC)cc(OC)c1Cl)C2 (racemic) [I-47]
- EC50 (pFGFR4 in Huh7 cells): 501 to 999 nM
- GI50 (Huh7 cells): > 1000 nM
- IC50 (FGFR4-WT; [2]): < 0.1 µM

SMILES: C=CC(=O)NC1CCCCC1Nc1ncc2c(n1)N(Cc1ccccc1)C(=O)N(c1c(Cl)c(OC)cc(OC)c1Cl)C2 (racemic) [I-63]
- EC50 [1]: 0.101 to 0.5 µM
- GI50 (Huh7 cells): 101 to 500 nM
- GI50 (MDA-MB-453 cells): 101 to 500 nM
- IC50 (FGFR4-WT): < 0.1 µM

SMILES: C=CC(=O)NC1CCCCC1Nc1ncc2c(n1)N(C)C(=O)N(c1cc(OC)cc(OC)c1Cl)C2 (racemic) [I-76]
- EC50 (pFGFR4 in Huh7 cells): > 1000 nM
- GI50 (Huh7 cells): > 1000 nM
- IC50 (FGFR4-WT; [2]): 0.501 to 0.999 µM

SMILES: C=CC(=O)NC1CCCCC1Nc1ncc2c(n1)N(CC(F)F)C(=O)N(c1c(Cl)c(OC)cc(OC)c1Cl)C2 (racemic) [I-105]
- EC50 (pFGFR4 in Huh7 cells): 101 to 500 nM
- GI50 (Huh7 cells): 501 to 999 nM
- IC50 (FGFR4-WT; [2]): 0.101 to 0.5 µM

SMILES: C=CC(=O)NC1CCCCC1Nc1ncc2c(n1)N(CC(F)F)C(=O)N(c1cc(OC)cc(OC)c1Cl)C2 (racemic) [I-107]
- EC50 (pFGFR4 in Huh7 cells): > 1000 nM
- GI50 (Huh7 cells): > 1000 nM
- IC50 (FGFR4-WT; [2]): > 1 µM

SMILES: C=CC(=O)NC1CC=CCC1Nc1ncc2c(n1)N(C)C(=O)N(c1c(Cl)c(OC)cc(OC)c1Cl)C2 (racemic) [I-113]
- GI50 (Huh7 cells): 501 to 999 nM
- IC50 (FGFR4-WT; [2]): < 0.1 µM

SMILES: C=CC(=O)Nc1ccccc1Nc1ncc2c(n1)N(C)C(=O)N(c1cc(OC)cc(OC)c1)C2 [I-5]
- EC50 [1]: 0.101 to 0.5 µM
- GI50 (Huh7 cells): > 1000 nM
- GI50 (MDA-MB-453 cells): 501 to 999 nM

SMILES: C=CC(=O)Nc1cc(N2CCN(CCOC)CC2)ccc1Nc1ncc2c(n1)N(Cc1cccc(NC(=O)CC)c1)C(=O)N(c1cc(OC)cc(OC)c1)C2 [I-9]
- EC50 [1]: < 0.1 µM
- GI50 (Huh7 cells): 501 to 999 nM
- GI50 (MDA-MB-453 cells): < 100 nM

SMILES: C=CC(=O)Nc1ccccc1Nc1ncc2c(n1)N(Cc1cccc(F)c1)C(=O)N(c1c(Cl)c(OC)cc(OC)c1Cl)C2 [I-12]
- EC50 [1]: 0.101 to 0.5 µM
- GI50 (MDA-MB-453 cells): 101 to 500 nM

SMILES: C=CC(=O)Nc1cc(N(C)CCOC)ccc1Nc1ncc2c(n1)N(Cc1ccccc1)C(=O)N(c1cc(OC)cc(OC)c1)C2 [I-13]
- EC50 [1]: 0.101 to 0.5 µM
- GI50 (Huh7 cells): > 1000 nM
- GI50 (MDA-MB-453 cells): 101 to 500 nM

SMILES: C=CC(=O)Nc1cc(N2CCN(CC)CC2)ccc1Nc1ncc2c(n1)N(C)C(=O)N(c1cc(OC)cc(OC)c1)C2 [I-15]
- EC50 [1]: 0.101 to 0.5 µM
- GI50 (MDA-MB-453 cells): < 100 nM

SMILES: C=CC(=O)Nc1cc(N2CCOCC2)ccc1Nc1ncc2c(n1)N(C)C(=O)N(c1cc(OC)cc(OC)c1)C2 [I-17]
- EC50 [1]: 0.101 to 0.5 µM
- GI50 (MDA-MB-453 cells): 101 to 500 nM

SMILES: C=CC(=O)Nc1cc(N2CCN(CCOC)CC2)ccc1Nc1ncc2c(n1)N(C)C(=O)N(c1cc(OC)cc(OC)c1)C2 [I-20]
- EC50 [1]: 0.101 to 0.5 µM
- GI50 (MDA-MB-453 cells): < 100 nM

SMILES: C=CC(=O)Nc1cc(N(C)CCOC)ccc1Nc1ncc2c(n1)N(C)C(=O)N(c1cc(OC)cc(OC)c1)C2 [I-21]
- EC50 [1]: 0.101 to 0.5 µM
- GI50 (Huh7 cells): 501 to 999 nM
- GI50 (MDA-MB-453 cells): 101 to 500 nM

SMILES: C=CC(=O)Nc1ccccc1Nc1ncc2c(n1)N(Cc1ccc(F)cc1)C(=O)N(c1c(Cl)c(OC)cc(OC)c1Cl)C2 [I-25]
- EC50 [1]: 0.101 to 0.5 µM
- GI50 (Huh7 cells): 501 to 999 nM
- GI50 (MDA-MB-453 cells): < 100 nM

SMILES: C=CC(=O)Nc1ccccc1Nc1ncc2c(n1)N(Cc1cccc(N)c1)C(=O)N(c1c(Cl)c(OC)cc(OC)c1Cl)C2 [I-26]
- EC50 [1]: < 0.1 µM
- GI50 (Huh7 cells): < 100 nM
- GI50 (MDA-MB-453 cells): < 100 nM

SMILES: C=CC(=O)Nc1ccccc1Nc1ncc2c(n1)N(Cc1cccnc1)C(=O)N(c1cc(OC)cc(OC)c1)C2 [I-44]
- EC50 [1]: 0.101 to 0.5 µM
- GI50 (Huh7 cells): > 1000 nM
- GI50 (MDA-MB-453 cells): 101 to 500 nM

SMILES: C=CC(=O)N(C)C1CCCCC1Nc1ncc2c(n1)N(C)C(=O)N(c1c(Cl)c(OC)cc(OC)c1Cl)C2 (centres unmarked) [I-53]
- IC50 (FGFR4-WT; [2]): < 0.1 µM

SMILES: C=CC(=O)Nc1cc(N2CCN(C(C)=O)CC2)ccc1Nc1ccc2c(c1)N(C)C(=O)N(c1cc(OC)cc(OC)c1)C2 [I-55]
- EC50 [1]: 0.101 to 0.5 µM
- GI50 (Huh7 cells): 101 to 500 nM
- GI50 (MDA-MB-453 cells): 101 to 500 nM
- IC50 (FGFR4-WT; [2]): < 0.1 µM

SMILES: C=CC(=O)Nc1ccccc1Nc1ncc2c(n1)N(CCOC)C(=O)N(c1cc(OC)cc(OC)c1)C2 [I-59]
- EC50 [1]: 0.101 to 0.5 µM
- GI50 (Huh7 cells): > 1000 nM
- GI50 (MDA-MB-453 cells): 501 to 999 nM

SMILES: C=CC(=O)Nc1cc(N2CCN(C(=O)OC(C)(C)C)CC2)ccc1Nc1ncc2c(n1)N(C)C(=O)N(c1c(Cl)c(OC)cc(OC)c1Cl)C2 [I-62]
- IC50 (FGFR4-WT; [2]): < 0.1 µM

SMILES: C=CC(=O)N[C@H]1CCCC[C@H]1Nc1ncc2c(n1)N(Cc1cscn1)C(=O)N(c1c(Cl)c(OC)cc(OC)c1Cl)C2 [I-114]
- EC50 [1]: 0.101 to 0.5 µM
- GI50 (Huh7 cells): 101 to 500 nM
- GI50 (MDA-MB-453 cells): 101 to 500 nM
- IC50 (FGFR4-WT; read-out: FGFR4 IC50): < 0.1 µM

SMILES: CCC(=O)N[C@H]1CCCC[C@H]1Nc1ncc2c(n1)N(Cc1cscn1)C(=O)N(c1c(Cl)c(OC)cc(OC)c1Cl)C2 [I-118]
- IC50 (FGFR4-WT; [2]): > 1 µM

SMILES: C=CC(=O)N[C@@H]1CCCC[C@@H]1Nc1ncc2c(n1)N(Cc1cscn1)C(=O)N(c1c(Cl)c(OC)cc(OC)c1Cl)C2 [I-119]
- IC50 (FGFR4-WT; read-out: FGFR4 IC50): > 1 µM

SMILES: C=CC(=O)NC1COCC1Nc1ncc2c(n1)N(C)C(=O)N(c1c(Cl)c(OC)cc(OC)c1Cl)C2 (centres unmarked) [I-126]
- EC50 [1]: < 0.1 µM
- GI50 (Huh7 cells): 101 to 500 nM
- GI50 (MDA-MB-453 cells): < 100 nM

SMILES: C=CC(=O)Nc1ccccc1Nc1ncc2nc(-c3cc(OC)cc(OC)c3)c(=O)n(C)c2n1 [I-128]
- IC50 (FGFR4-WT; [2]): 0.101 to 0.5 µM

SMILES: C=CC(=O)Nc1ccccc1Nc1ncc2c(n1)N(Cc1csc(C)n1)C(=O)N(c1c(Cl)c(OC)cc(OC)c1Cl)C2 [I-134]
- EC50 [1]: < 0.1 µM
- GI50 (MDA-MB-453 cells): < 100 nM

SMILES: C=CC(=O)N[C@H]1CCCC[C@H]1Nc1ncc2c(n1)N(Cc1cnn(C)c1)C(=O)N(c1c(Cl)c(OC)cc(OC)c1Cl)C2 [I-148]
- IC50 (FGFR4-WT; [2]): < 0.1 µM

SMILES: C=CC(=O)Nc1ccccc1Nc1ncc2c(n1)N(Cc1cnn(C)c1)C(=O)N(c1c(Cl)c(OC)cc(OC)c1Cl)C2 [I-149]
- GI50 (Huh7 cells): < 100 nM
- IC50 (FGFR4-WT; [2]): < 0.1 µM

SMILES: C=CC(=O)Nc1ccccc1Nc1ncc2cc(-c3cc(OC)cc(OC)c3)c(N)nc2n1 [I-155]
- IC50 (FGFR4-WT; [2]): < 0.1 µM

SMILES: C=CC(=O)NC1COCC1Nc1ncc2c(n1)N(Cc1cn[nH]c1)C(=O)N(c1c(Cl)c(OC)cc(OC)c1Cl)C2 (centres unmarked) [I-214]
- GI50 (Huh7 cells): 101 to 500 nM
- IC50 (FGFR4-WT; read-out: FGFR4 IC50): < 0.1 µM

SMILES: C=CC(=O)N[C@H]1CCCC[C@H]1Nc1ncc2c(n1)N(C)C(=O)N(c1c(Cl)c(OC)c(OC)c(OC)c1Cl)C2 [I-221]
- IC50 (FGFR4-WT; [2]): > 1 µM

SMILES: CCC(=O)Nc1ccccc1Nc1ncc2c(n1)N(Cc1ccccc1)C(=O)N(c1c(Cl)c(OC)cc(OC)c1Cl)C2 [I-236]
- EC50 [1]: > 1 µM
